Where two headings read alike, the source gives them in different places.
Tests used:
[1] = system: human tumour cell lines; assay: cell-based anti-proliferative assays
Description: These assays, including methods for their performance, are described in more detail in Example 3. Using such cell line and enzymes assays it may be determined whether a compound is anti-proliferative in the context of the present invention.
(§1) Selected compounds from the above examples were subjected to a standard cellular proliferation assay using a range of different human tumour cell lines. Standard 72-h MTT (thiazolyl blue; 3-[4,5-dimethylthiazol-2-yl]-2,5-diphenyltetrazolium bromide) assays were performed (Haselsberger, K.; Peterson, D. C.; Thomas, D. G.; Darling, J. L. Anti Cancer Drugs 1996, 7, 331–8; Loveland, B. E.; Johns, T. G.; Mackay, I. R.; Vaillant, F.; Wang, Z. X.; Hertzog, P. J. Biochemistry International 1992, 27, 501–10). Human tumour cell lines were obtained from the ATCC (American Type Culture Collection, 10801 University Boulevard, Manessas, Va. 20110-2209, USA).

[2] = system: A549; assay: 72-h MTT cellular proliferation assay, A549; type: cell-based; conditions: human tumour cell line A549, 72-h MTT; read-out: Cytotoxicity (IC50, μM) A549
Description: (§2) Selected compounds from the above examples were subjected to a standard cellular proliferation assay using a range of different human tumour cell lines.

[3] = system: HT29; assay: 72-h MTT cellular proliferation assay, HT29; type: cell-based; conditions: HT-29; human tumour cell line HT29, 72-h MTT; read-out: Cytotoxicity (IC50, μM) HT29
Description: as §2

[4] = system: Saos-2; assay: 72-h MTT cellular proliferation assay, Saos-2; type: cell-based; conditions: human tumour cell line Saos-2, 72-h MTT; read-out: Cytotoxicity (IC50, μM) Saos-2
Description: as §2

[5] = biological target: T1, CDK2/cyclin E (Homo sapiens, UniProt P24941); assay: CDK2/Cyclin E kinase assay (GST-Rb phosphorylation, radiolabelled ATP); type: biochemical;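 also: enzyme was His-tagged CDK2/cyclin E co-expressed in baculovirus-infected Sf9 insect cells and purified over a metal-chelate column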
T1 construct: His; made in house; host or cells: Sf9 insect cells (baculovirus)

[6] = 72-h MTT cellular proliferation assay, W138; type: cell-based; conditions: human, W138 cells (non-transformed); non-transformed cell line W138, 72-h MTT; read-out: Cytotoxicity (IC50, μM) W138
Method: as §1

[7] = system: HeLa; assay: 72-h MTT cellular proliferation assay, HeLa; type: cell-based; conditions: human tumour cell line HeLa, read-out: Cytotoxicity (IC50, μM) HeLa
Description: as §2

[8] = 72-h MTT cellular proliferation assay, Hs27; type: cell-based; conditions: human, Hs27 cells (non-transformed); non-transformed cell line Hs27, 72-h MTT; read-out: Cytotoxicity (IC50, μM) Hs27
Method: as §1

[9] = 72-h MTT cellular proliferation assay, IMR90; type: cell-based; conditions: human, IMR90 cells (non-transformed); non-transformed cell line IMR90, 72-h MTT; read-out: Cytotoxicity (IC50, μM) IMR90
Method: as §1

[10] = system: MCF7; assay: 72-h MTT cellular proliferation assay, MCF7; type: cell-based; conditions: human tumour cell line MCF7, 72-h MTT; read-out: Cytotoxicity (IC50, μM) MCF7
Description: as §2

[11] = bound stated, (±0.05), read-out: IC50 for cdk2/cyclinE

Row | SMILES | anti-proliferative activity in cell-based assays [1] | IC50 [2] [µM] | IC50 [3] [µM] | melting point [°C] | IC50 [4] [µM] | IC50 [5, 11] [nM] | IC50 at 72 h [6] [µM] | IC50 [7] [µM] | IC50 at 72 h [8] [µM] | IC50 at 72 h [9] [µM] | IC50 [10] [µM] | IC50 ([5]; read-out: CDK2/cyclin E (IC50)) [nM]
1 | Cc1[nH]c([N+](=O)[O-])c(C)c1-c1ccnc(Nc2ccc(N(C)C)cc2)n1 [Compound 48, N-[4-(2,4-Dimethyl-5-nitro-1H-pyrrol-3-yl)-pyrimidin-2-yl]-N′,N′-dimethyl-benzene-1,4-diamine] | particularly effective anti-proliferative agents | 3.05 | 0.61 | 265 to 268 | 2.65 | < 1000 | – | – | – | – | – | –
2 | Cc1[nH]c(C#N)c(C)c1-c1ccnc(Nc2ccc(I)cc2)n1 [Compound 35, 4-[2-(4-Iodo-phenylamino)-pyrimidin-4-yl]-3,5-dimethyl-1H-pyrrole-2-carbonitrile] | particularly effective anti-proliferative agents | 0.51 | 0.11 | 178.3 to 181.2 | 0.75 | < 500 | 21.3 | 0.09 | 35.1 | 37.3 | 0.45 | –
3 | Cc1[nH]c(CN2CCN(C)CC2)c(C)c1-c1ccnc(Nc2ccc(F)cc2)n1 [Compound 56, {4-[2,4-Dimethyl-5-(4-methyl-piperazin-1-ylmethyl)-1H-pyrrol-3-yl]-pyrimidin-2-yl}-(4-fluoro-phenyl)-amine] | particularly effective anti-proliferative agents | 13.8 | 5.09 | – | 14.2 | < 5000 | – | – | – | – | – | 1510
4 | Cc1[nH]c(CN(C)C)c(C)c1-c1ccnc(Nc2ccc(F)cc2)n1 [Compound 54, [4-(5-Dimethylaminomethyl-2,4-dimethyl-1H-pyrrol-3-yl)-pyrimidin-2-yl]-(4-fluoro-phenyl)-amine] | particularly effective anti-proliferative agents | 2.76 | 3.2 | 88.4 to 91.6 | 0.7 | < 500 | – | – | – | – | – | –
5 | Cc1[nH]c(C#N)c(C)c1-c1ccnc(Nc2ccc(C(F)(F)F)cc2)n1 [Compound 34, 3,5-Dimethyl-4-[2-(4-trifluoromethyl-phenylamino)-pyrimidin-4-yl]-H-pyrrole-2-carbonitrile] | particularly effective anti-proliferative agents | 3.64 | 0.95 | 195.6 to 198.9 | 3.4 | < 500 | – | – | – | – | – | –
6 | Cc1ccc(Nc2nccc(-c3c(C)[nH]c(C#N)c3C)n2)cc1I [Compound 38, 4-[2-(3-Iodo-4-methyl-phenylamino)-pyrimidin-4-yl]-3,5-dimethyl-1H-pyrrole-2-carbonitrile] | particularly effective anti-proliferative agents | 3.6 | 0.72 | 189.5 to 191.7 | 3.12 | < 1000 | – | – | – | – | – | –
7 | Cc1cc(Nc2nccc(-c3c(C)[nH]c(C#N)c3C)n2)ccc1Cl [Compound 39, 4-[2-(4-Chloro-3-methyl-phenylamino)-pyrimidin-4-yl]-3,5-dimethyl-1H-pyrrole-2-carbonitrile] | particularly effective anti-proliferative agents | 4.37 | 3.27 | 194.2 to 197.9 | 5.88 | < 1000 | – | – | – | – | – | 1020
8 | Cc1ccc(Nc2nccc(-c3c(C)[nH]c(C#N)c3C)n2)cc1F [Compound 42, 4-[2-(3-Fluoro-4-methyl-phenylamino)-pyrimidin-4-yl]-3,5-dimethyl-1H-pyrrole-2-carbonitrile] | particularly effective anti-proliferative agents | 1.49 | 0.28 | 177.7 to 179.9 | 2.23 | < 1000 | – | – | – | – | – | –
9 | Cc1[nH]c(C#N)c(C)c1-c1ccnc(Nc2ccc(N(C)C)cc2)n1 [Compound 43, 4-[2-(4-Dimethylamino-phenylamino)-pyrimidin-4-yl]-3,5-dimethyl-1H-pyrrole-2-carbonitrile] | particularly effective anti-proliferative agents | 1.41 | 0.17 | 190.6 to 193.7 | 1.5 | < 1000 | – | – | – | – | – | –
10 | Cc1[nH]c(Br)c(C)c1-c1ccnc(Nc2cccc([N+](=O)[O-])c2)n1 [Compound 51, [4-(5-Bromo-2,4-dimethyl-1H-pyrrol-3-yl)-pyrimidin-2-yl]-(3-nitro-phenyl)-amine] | particularly effective anti-proliferative agents | 7.56 | 2.92 | 198.1 to 203 | 12.4 | < 500 | – | – | – | – | – | –
11 | Cc1c[nH]c(C)c1-c1ccnc(Nc2ccc(C(F)(F)F)cc2)n1 [Compound 12, [4-(2,4-Dimethyl-1H-pyrrol-3-yl)-pyrimidin-2-yl]-(4-trifluoromethyl-phenyl)-amine] | particularly effective anti-proliferative agents | 15 | 3.1 | 165.6 to 167.9 | 17 | < 1000 | – | – | – | – | – | 900
12 | Cc1[nH]c(C#N)c(C)c1-c1ccnc(Nc2ccc(F)cc2)n1 [Compound 32, 4-[2-(4-Fluoro-phenylamino)-pyrimidin-4-yl]-3,5-dimethyl-1H-pyrrole-2-carbonitrile] | particularly effective anti-proliferative agents | – | – | – | – | < 500 | 9.6 | – | 15.1 | 20.8 | – | –
13 | CCN(CC)Cc1[nH]c(C)c(-c2ccnc(Nc3ccc(F)cc3)n2)c1C [Compound 53, [4-(5-Diethylaminomethyl-2,4-dimethyl-1H-pyrrol-3-yl)-pyrimidin-2-yl]-(4-fluoro-phenyl)-amine] | particularly effective anti-proliferative agents | 0.97 | 1.31 | – | 1.61 | < 1000 | – | – | – | – | – | 870
